According to patent US6858399B2, “Test for oxidative stress using cell suspensions” (priority 1998, dated 2005):

How the values were obtained:
rat red blood cells = assay: Rat RBC PC biosynthesis; format: cell-based; settings: rat RBC's, 10 minutes incubation
erythrocytes [1] = settings: Ferrali, et al, Biochem Pharm. 38, 1819-1825 (1989); cited from earlier work
human red blood cells = assay: PC biosynthesis of human RBC's; format: cell-based; settings: for PC biosynthesis percent of control ± SEM: 30 minutes incubation, 100 mM ethanol, 1 mM APAP, 1 mM THC, 10 mM allyl alcohol, 1 mM cocaine, 1 mM BTM, with and without 4-MP
cultured hepatocytes = assay: PC biosynthesis in primary cultures of adult rat hepatocytes, 72 h incubation; format: cell-based; settings: for Change in cellular PC biosynthesis / Effect on the ethanol/acetaminophen-induced decrease in cellular PC biosynthesis: 72 hours; for Change in cellular PC biosynthesis: 100 mM ethanol, 1 mM acetaminophen; for Effect on the ethanol/acetaminophen-induced decrease in cellular PC biosynthesis: co-incubation with 100 mM ethanol or 1 mM acetaminophen
Method: Male sprague Dawley rats (Zivic-Miller) weighing 200 to 350 grams were treated with a 50 mg/kg dose of phenobarbital (ip) for 3 days prior to perfusion. During this 3 day period, the animals were also given water ad libitum containing 0.1% sodium phenobarbital. The animal was anesthetized with ether under a fume hood, then transferred to the surgical table with the abdomen exposed. The belly was shaved and cleansed with 70% ethanol and Clinidine. The abdominal skin was removed with scissors and forceps. An incision was made along the base of the abdomen and the renal artery was tied off.
After the hepatic vein was cannulated with a 16 gauge catheter, the liver was washed with a balanced salt solution containing EDTA and Tricine. The hepatic artery was cannulated with a 16 gauge catheter. After 5 minutes of reverse flow perfusion was practiced to facilitate the wash cycle. After the blood is washed from the liver, the color of the liver changes from deep red to a brownish color.
The liver was then infused with Collagenase solution (112.5 mg/300 ml of Waymouth 752/1 media) bubbled with 5% CO2. After 5 minutes, reverse flow of Collagenase into the liver was accomplished, followed by reverse to normal flow after 5 minutes. Normal flow was continued until liver tissue was breaking down and ready for collection. Complete liver wash and perfusion should take about 30 minutes.
The perfused liver was collected with a strainer and transferred to an Erlenmeyer flask containing 50 ml of original Collagenase solution. The liver was minced using a gyratory water bath at 37° C. and allowed to swirl for no longer than 15 minutes. The solution was then filtered through a sterile gauze into centrifuge tubes and spun in a table top centrifuge for 5 minutes at 1000 rpm. (70×g). Aspirate media and suspended cells were placed in Waymouth 752/1 media containing 20% isodensity Percol and were then centrifuged for 4 minutes at 70×g. Cells were washed three times and resuspended in Waymouth 752/1 media. Samples of 0.5 ml were plated on 35 mm collagen-coated plastic culture dishes containing 0.75 ml of supplemented Waymouth 752/1 media.
(§1) PC biosynthesis in cultured cells: Aliquots (0.01 ml) of DMSO and water or DMSO and water containing various agents were added to medium with 2-hour monolayers of cells. After the appropriate agent-incubation period, a 0.02 ml aliquot of [^3H]-choline (0.2 μCi and 15 pmoles of choline]) was added to Waymouth 752/1 {1.25 ml} media. Incubations were stopped after 90 minutes by addition of 2 ml of methanol containing 1% 1N HCl. Cells were removed from the culture dishes by scraping with TEFLON™-coated spatula and placed in glass test tubes. (Lamb, et al., Hepatology 19: 174 (1994))
(§2) PC extraction procedure: Two ml of chloroform and 0.5 ml of water were added to each sample. Tubes were vortexed and centrifuged for 5 minutes to clear the upper and lower phases. The upper phase was aspirated and the lower phase washed by adding 2 ml of wash solution containing 50% methanol, 45% water and 5% 7.4% KCl. The samples were vortexed and centrifuged 5 minutes to clear the upper and lower phases. The upper phase was aspirated and the lower phase was washed again in 2 ml wash solution. After the phases were cleared by centrifugation, the lower phase was carefully removed, placed in a glass test tube, dried, solubilized in scintillation fluid and counted in a Beckman beta counter. Agent-induced alterations in the incorporation of labeled choline into PC was used as a measure of changes in cellular PC biosynthesis.

cultured rat liver cells = assay: PC biosynthesis of cultured rat liver cells from 3 and 20 month-old rats, 24 h; format: cell-based; settings: 1 mM APAP, 100 mM ETOH, mean ± SEM of nine values; for PC biosynthesis, 3 Month: cells from 3 month-old male rats; for PC biosynthesis, 20 Month: cells from 20 month-old male rats
Method: as §1, §2

human liver cells = assay: PC biosynthesis of human liver cells (labeled choline incorporation into PC); format: cell-based; settings: for Alteration in cellular PC biosynthesis: human liver cells incubated 90 minutes, 100 mM ethanol or 1 mM acetaminophen
Method: as §1, §2
PC biosynthesis in isolated cells: Aliquots (0.75 ml) of Waymouth 752/1 media were placed in glass test tubes. Aliquots (0.01) of DMSO and water or DMSO and water containing various test agents were added to the tubes along with 0.02 ml [^3H]-choline [0.2 μCi and 15 pmoles choline]. Incubations were started by adding 0.5 ml aliquotes of cells suspended in Waymouth 752/1 media to the test tubes and placing the tubes in a shaking water bath at 37° C. Incubations were stopped after the appropriate incubation period (2-90 minutes) by addition of 2 ml of methanol containing 1% 1N HCl. Labeled PC was extracted by methods described above for cultured cells. […]

[2] = system: cells isolated from rat intestine; assay: PC biosynthesis in cells isolated from rat intestine; format: cell-based; settings: 1 mM APAP, 30 minutes
cultured astrocyte = assay: Cultured astrocyte PC biosynthesis; format: cell-based; settings: for PC biosynthesis, Percent control of + SEM: cultured astrocytes, 100 mM ethanol, 1 mM APAP, 1 mM THC, 1 mM 4-MP, alone or combined
erythrocytes [3] = assay: PC biosynthesis in cells isolated from rat blood (erythrocytes); format: cell-based; settings: 1 mM APAP, 30 minutes
Method: Preparation of red cell fractions: Rat or human blood was placed in Sorval tubes and, centrifuged at 3000 rpm for 10 minutes under refrigeration. The supernate was removed and the pellet of RBC's resuspended in PBS at 4 times the volume of the supernate. This may be frozen in 2 ml aliquots at −70° C.

[4] = system: cells isolated from rat lung; assay: PC biosynthesis in cells isolated from rat lung; format: cell-based; settings: 1 mM APAP, 30 minutes
rat liver cells = assay: PC biosynthesis of rat liver cells (labeled choline incorporation into PC); format: cell-based; settings: for Alteration in cellular PC biosynthesis: rat liver cells incubated 90 minutes, 100 mM ethanol or 1 mM acetaminophen
brain cell fractions = assay: PC biosynthesis of brain cell fractions; format: cell-based; settings: brain cell fractions incubated 30 minutes; agent concentration (100 mM ethanol, 1 mM others)
Method: as §2
PC biosynthesis in isolated cells: Aliquots (0.75 ml) of Waymouth 752/1 media were placed in glass test tubes. Aliquots (0.01) of DMSO and water or DMSO and water containing various test agents were added to the tubes along with 0.02 ml [^3H]-choline [0.2 μCi and 15 pmoles choline]. Incubations were started by adding 0.5 ml aliquotes of cells suspended in Waymouth 752/1 media to the test tubes and placing the tubes in a shaking water bath at 37° C. Incubations were stopped after the appropriate incubation period (2-90 minutes) by addition of 2 ml of methanol containing 1% 1N HCl. Labeled PC was extracted by methods described above for cultured cells. Agent-induced increases in the incorporation of labeled choline into PC were used to measure increases in cellular PC biosynthesis.
Cells were isolated from brain homogenates according to the methods described in the methodology section under “PC biosynthesis in isolated cells”.

cultured liver cells = assay: PC biosynthesis of cultured liver cells incubated 24 and 72 hours with and without vitamin E phosphate; format: cell-based; settings: 24 and 72 hours with and without 50 μM vitamin E phosphate
Method: After the appropriate agent-incubation period, a 0.02 ml aliquot of [^3H]-choline (0.2 μCi and 15 pmoles of choline]) was added to Waymouth 752/1 {1.25 ml} media. […] Cells were removed from the culture dishes by scraping with TEFLON™-coated spatula and placed in glass test tubes. (Lamb, et al., Hepatology 19: 174 (1994))
Alterations in PC biosynthesis were studied using cultured liver cells incubated 24 and 72 hours with and without 50 μM vitamin E phosphate (VEP).

C=CCO [allyl alcohol]
PC biosynthesis % of Control ± SEM (rat red blood cells): 1315 ± 99 % of Control
Adverse effects on erythrocytes (erythrocytes [1]): could not demonstrate the adverse effects
PC biosynthesis percent of control ± SEM (human red blood cells): 377 ± 3% of control

CC(=O)Nc1ccc(O)cc1 [APAP, acetaminophen]
Change in cellular PC biosynthesis (cultured hepatocytes): significant decrease
PC biosynthesis % of Control ± SEM (rat red blood cells): 655 ± 26 % of Control
PC biosynthesis, 3 Month (cultured rat liver cells): 137 ± 11% of control
PC biosynthesis, 20 Month (cultured rat liver cells): 38 ± 2% of control
Alteration in cellular PC biosynthesis (human liver cells): significantly (p<0.05) increase
PC biosynthesis percent of control ± SEM, intestine [2]: 287 ± 13% of control
PC biosynthesis, Percent control of + SEM (cultured astrocyte): 159 ± 15 Percent control
PC biosynthesis percent of control ± SEM, erythrocytes (erythrocytes [3]): 236 ± 13% of control
PC biosynthesis percent of control ± SEM, lung [4]: 471 ± 38% of control
Alteration in cellular PC biosynthesis (rat liver cells): significantly (p<0.05) increased
PC biosynthesis percent of control ± SEM (human red blood cells): 512 ± 27% of control

CCO [ethanol]
PC biosynthesis (cultured hepatocytes; 72 h, 100 mM ETOH, 1 mM APAP, 0.5 mM 4-MP, 200 units SOD, 800 units CAT, 2 mM DEF, 0.025 mM 20:4, 0.25 mM 16:0, 6-9 experimental values): 39 ± 2% of control
Change in cellular PC biosynthesis (cultured hepatocytes): significant decrease
PC biosynthesis % of Control ± SEM (rat red blood cells): 374 ± 19 % of Control
PC biosynthesis, 3 Month (cultured rat liver cells): 147 ± 13% of control
PC biosynthesis, 20 Month (cultured rat liver cells): 59 ± 1% of control
Agent-induced alterations in PC biosynthesis, Percent control of + SEM (brain cell fractions): 173 ± 8 Percent control
Alteration in cellular PC biosynthesis (human liver cells): significantly (p<0.05) increase
PC biosynthesis, Percent control of + SEM (cultured astrocyte): 199 ± 14 Percent control
Alteration in cellular PC biosynthesis (rat liver cells): significantly (p<0.05) increased
PC biosynthesis percent of control ± SEM (human red blood cells): 222 ± 9% of control

O=S(=O)([O-])[O-].[Fe+2] [FeSO4]
Agent-induced alterations in PC biosynthesis, Percent control of + SEM (brain cell fractions): 226 ± 8 Percent control

iron
PC biosynthesis % of Control ± SEM (rat red blood cells): 919 ± 73 % of Control

CCCCCc1cc(O)c2c(c1)OC(C)(C)[C@@H]1CCC(C)=C[C@@H]21 [THC, Δ-9-tetrahydrocannabinol]
PC biosynthesis % of Control ± SEM (rat red blood cells): 1142 ± 65 % of Control
Agent-induced alterations in PC biosynthesis, Percent control of + SEM (brain cell fractions): 293 ± 21 Percent control
PC biosynthesis, Percent control of + SEM (cultured astrocyte): 201 ± 11 Percent control
PC biosynthesis percent of control ± SEM (human red blood cells): 433 ± 30% of control

ClC(Cl)(Cl)Br [BTM, bromotrichloromethane]
PC biosynthesis % of Control ± SEM (rat red blood cells): 533 ± 29 % of Control
Agent-induced alterations in PC biosynthesis, Percent control of + SEM (brain cell fractions): 194 ± 25 Percent control
PC biosynthesis percent of control ± SEM (human red blood cells): 728 ± 3% of control

Cc1c(C)c2c(c(C)c1OC(=O)CCC(=O)O)CC[C@@](C)(CCC[C@H](C)CCC[C@H](C)CCCC(C)C)O2 [VES, vitamin E succinate]
Effect on the ethanol/acetaminophen-induced decrease in cellular PC biosynthesis (cultured hepatocytes): reduced

COC(=O)[C@H]1[C@@H](OC(=O)c2ccccc2)C[C@@H]2CC[C@H]1N2C [cocaine]
PC biosynthesis % of Control ± SEM (rat red blood cells): 458 ± 7 % of Control
PC biosynthesis percent of control ± SEM (human red blood cells): 292 ± 10% of control

Cc1c(C)c2c(c(C)c1OP(=O)(O)O)CCC(C)(CCCC(C)CCCC(C)CCCC(C)C)O2 (stereo not drawn) [vitamin E phosphate]
Alterations in PC biosynthesis (cultured liver cells): incubation time-dependent decreases in PC biosynthesis unless vitamin E phosphate was added

C=CC=O [acreolein]
Adverse effects on erythrocytes (erythrocytes [1]): deleterious effects on the cells

C=CC(=O)O [acrylic acid]
Adverse effects on erythrocytes (erythrocytes [1]): could not demonstrate the adverse effects

Cc1cn[nH]c1 [4-MP, 4-methylpyrazole]
Effect on the ethanol/acetaminophen-induced decrease in cellular PC biosynthesis (cultured hepatocytes): reduced
Effect on ethanol and acetaminophen-induced increases in cellular PC biosynthesis (human liver cells; 1 mM 4-methylpyrazole, 90 minutes, with 100 mM ethanol or 1 mM acetaminophen): significantly decreases
Effect on agent-induced increase in PC biosynthesis (cultured astrocyte; 1 mM 4-MP with ethanol, APAP, THC or combinations): Å values without 4-MP are significantly increased (p < 0.05) above controls. 4-MP significantly reduced (p < 0.05) the agent-induced increase in PC biosynthesis.
Effect on ethanol-induced and acetaminophen-induced increases in cellular biosynthesis (rat liver cells; 4-methylpyrazole, 90 minutes, with 100 mM ethanol or 1 mM acetaminophen): significantly reduced
Effect on drug-induced increases in PC biosynthesis (human red blood cells; 30 minutes, 4-MP added to each agent): significantly (p<0.05) reduces

B1: CAT: catalase (protein, UniProt P00432 2-527, looked up)
Catalase: ADNRDPASDQMKHWKEQRAAQKPDVLTTGGGNPVGDKLNSLTVGPRGPLLVQDVVFTDEMAHFDRERIPERVVHAKGAGAFGYFEVTHDITRYSKAKVFEHIGKRTPIAVRFSTVAGESGSADTVRDPRGFAVKFYTEDGNWDLVGNNTPIFFIRDALLFPSFIHSQKRNPQTHLKDPDMVWDFWSLRPESLHQVSFLFSDRGIPDGHRHMNGYGSHTFKLVNANGEAVYCKFHYKTDQGIKNLSVEDAARLAHEDPDYGLRDLFNAIATGNYPSWTLYIQVMTFSEAEIFPFNPFDLTKVWPHGDYPLIPVGKLVLNRNPVNYFAEVEQLAFDPSNMPPGIEPSPDKMLQGRLFAYPDTHRHRLGPNYLQIPVNCPYRARVANYQRDGPMCMMDNQGGAPNYYPNSFSAPEHQPSALEHRTHFSGDVQRFNSANDDNVTQVRTFYLKVLNEEQRKRLCENIAGHLKDAQLFIQKKAVKNFSDVHPEYGSRIQALLDKYNEEKPKNAVHTYVQHGSHLSAREKANL
Effect on the ethanol/acetaminophen-induced decrease in cellular PC biosynthesis (cultured hepatocytes): reduced
